“And” between values parts separate entries of the source, which are not always exact repeats. Equal values may be shown once.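 Following 48 hours of exposure in 96-well plates, responses at five concentrations were used to interpolate endpoints linearly. GI50: concentration for 50% inhibition of growth. At the TGI there is no net growth.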
Tests used:
Experiment in all cases: inhibition of tumour cell growth, NCI panel, 48 h
[1] = system: COLO 205 colon
[2] = system: HOP-62 NSCLC
[3] = system: NCI-H226 lung
[4] = system: EKVX NSCLC
[5] = system: SF-539 CNS
[6] = system: RXF 393 renal
[7] = system: HCT-116 colon
[8] = system: ACHN renal
[9] = system: SW-620 colon
[10] = system: U251 CNS

SMILES | GI50 [1] | TGI [1] | GI50 [2] | TGI [2] | GI50 [3] | TGI [3] | GI50 [4] | TGI [4] | GI50 [5] | TGI [5] | GI50 [6] | TGI [6] | GI50 [7] | TGI [7] | GI50 [8] | TGI [8] | GI50 [9] | TGI [9] | GI50 [10] | TGI [10]
O=C1NC(=O)[C@@H](c2cn3c4c(cccc24)CCC3)[C@@H]1c1c[nH]c2ccccc12 | 0.273 µM and 0.326 µM | 0.973 µM and 1.14 µM | 0.423 µM and 0.465 µM | > 10 µM and 16.8 µM | > 2.61 µM and 1.48 µM | > 10 µM and 17.9 µM | 0.482 µM and 0.991 µM | > 10 µM and 29.3 µM | 0.319 µM and 0.337 µM | 2.39 µM and 5.25 µM | 0.294 µM and 0.332 µM | > 10 µM and 2.91 µM | 0.377 µM and 0.458 µM | > 6.16 µM and 10.6 µM | 0.661 µM and 0.829 µM | > 10 µM and 32.9 µM | 0.391 µM and 0.354 µM | > 10 µM and 15.2 µM | 0.391 µM and 0.451 µM | > 10 µM and 12.9 µM
CCN(CC)c1ccc2[nH]c3c(C(N)=O)cc(=O)c(=O)c=3oc2c1 | 3.09 µM | 11.3 µM | 0.445 µM | 15.4 µM | 2.49 µM | 7.54 µM | 2.79 µM | 15.7 µM | 0.597 µM | 14.1 µM | 1.37 µM | 6.39 µM | 0.281 µM | 1.04 µM | 1.84 µM | > 100 µM | 2.36 µM | > 100 µM | 0.912 µM | 5.75 µM
CC(=O)C(C(=N)C#N)C(=O)Nc1ccccc1 (centres undefined) |  | > 100 µM |  | > 100 µM |  | > 100 µM |  | > 100 µM |  | > 100 µM |  | > 100 µM |  | > 100 µM |  | > 100 µM |  | > 100 µM |  | > 100 µM
COC1CCC2C(=O)CCCC2O1 (centres undefined) |  | > 100 µM |  | > 100 µM |  | > 100 µM |  | > 100 µM |  | > 100 µM |  | > 100 µM |  | > 100 µM |  | > 100 µM |  | > 100 µM |  | > 100 µM
O=C(CSc1nc2ccc([N+](=O)[O-])cc2[nH]1)Nc1cccc(C(F)(F)F)c1 | 1.71 µM | 3.47 µM | 2.56 µM | 10.8 µM | 1.69 µM | 9.27 µM | 1.84 µM | 9.94 µM | 2.9 µM | 11.7 µM | 2 µM | 8.02 µM | 2.69 µM | 12.1 µM | 2.42 µM | 8.21 µM | 3.13 µM | 14.6 µM | 2.28 µM | 12.2 µM
C[C@@H](Oc1cc(-c2cnn(C3CCNCC3)c2)cnc1N)c1c(Cl)ccc(F)c1Cl | 0.42 µM | 1.57 µM | 2.57 µM | > 10 µM | 0.701 µM | > 10 µM | 8.07 µM | > 10 µM | 1.8 µM | 3.5 µM | 1.36 µM | 3.11 µM | 0.619 µM | 4.77 µM | 2.97 µM | > 10 µM | 0.435 µM | > 10 µM | 1.98 µM | 8.74 µM
Cc1ccc(C2=[N+]([O-])c3ccccc3C2=O)cc1 |  | > 72.8 µM |  | > 100 µM |  | > 100 µM |  | 51.7 µM |  | 77.7 µM |  | 26.6 µM |  | > 54.4 µM |  | 32 µM |  | > 55.2 µM |  | 44.9 µM
Cc1cc(S(=O)(=O)Nc2nnc(-c3ccco3)c(-c3ccco3)n2)c(SCc2ccccc2)cc1Cl | 26.1 µM | 56.3 µM | 25.5 µM | 53.3 µM | 22.4 µM | 69.9 µM | 17.5 µM | 37.6 µM | 19.9 µM | 41.1 µM | 22.8 µM | 47.6 µM | 33.2 µM | > 100 µM | 20.2 µM | 41.9 µM | 23 µM | 47.2 µM | 25.7 µM | 62.2 µM
COc1cccc(-c2nc(-c3ccc(NS(=O)(=O)c4ccccc4)cc3)[nH]c2-c2ccnc(Br)c2)c1 | 2.66 µM | 12.4 µM | 3.39 µM | > 100 µM | 2.91 µM | > 100 µM | 2.25 µM | 9.06 µM | 2.53 µM | 8.03 µM | 2.18 µM | 5.73 µM | 2.09 µM | 5.46 µM | 2.6 µM | > 100 µM | 2.83 µM | > 100 µM | 2.73 µM | > 100 µM
Brc1nc2c3ccccc3ncn2c1Br |  | 29.8 µM |  | > 100 µM |  | > 100 µM |  | 95.9 µM |  | > 100 µM |  | 86.1 µM |  | > 100 µM |  | 50.9 µM |  | > 100 µM |  | > 100 µM
Clc1ccc(N2COOC3(OOC2)C2CC4CC(C2)CC3C4)cc1 | 12.7 µM | 90.8 µM | 13.9 µM | 38.6 µM | > 61.2 µM | > 100 µM | 4.17 µM | > 100 µM | 4.74 µM | 59.3 µM | 6.96 µM | > 59.3 µM | 4.1 µM | > 50.2 µM | 0.622 µM | 6.03 µM |  | > 57.8 µM | 11.9 µM | 32.9 µM
O=C1NC(=O)C2=C1CCC2O (centres undefined) |  | > 100 µM |  | > 100 µM |  | > 100 µM |  | > 100 µM |  | > 100 µM |  | > 100 µM |  | > 100 µM |  | > 100 µM |  | > 100 µM |  | > 100 µM
O=C(Nc1cccc(NS(=O)(=O)c2ccc(F)cc2)c1)c1ccc(-c2ccccc2)cc1 | 3.23 µM | 11.4 µM | 4.66 µM | 37.2 µM | 3.22 µM | 24.3 µM | 2.98 µM | 65.3 µM | 3.42 µM | 12.8 µM | 3.65 µM | 20.7 µM | 3.48 µM | 13.4 µM | 3.65 µM | 42.7 µM | 4.04 µM | 35.4 µM | 3.92 µM | 19.2 µM
CCC12CCC(O)C1N(C)CCC2Sc1ccccc1 (centres undefined) |  | > 100 µM |  | > 100 µM |  | > 100 µM |  | > 100 µM |  | > 100 µM |  | > 100 µM |  | > 100 µM |  | > 100 µM |  | > 100 µM |  | > 100 µM
COCC1N=C(c2ccc(OC)c(OCc3ccccc3)c2OC)O[C@H]1c1ccccc1 (some centres undefined) |  | 41.8 µM |  | > 100 µM |  | 81.1 µM |  | > 100 µM |  | 35.8 µM |  | 97.3 µM |  | 34.5 µM |  | 52.4 µM |  | > 100 µM |  | 60.6 µM
O=NN(CCCl)C(=O)NCc1ccc[n+]([O-])c1 |  | > 100 µM |  | > 100 µM |  | > 100 µM |  | > 100 µM |  | > 100 µM |  | > 100 µM |  | > 100 µM |  | > 100 µM |  | > 100 µM |  | > 100 µM

Source: PubChem BioAssay (NCI)
